Experimental data from ChEMBL document CHEMBL2396612 (Bioorg Med Chem Lett, 2013).

Legend:
Homo sapiens = species: Homo sapiens; assay: Selectivity index, ratio of IC50 for ACAT1 (unknown origin) to IC50 for ACAT2 (unknown origin)
[1] = target: T1, Sterol O-acyltransferase 2 (Homo sapiens, UniProt O75908); assay: Inhibition of ACAT2 (unknown origin)
T1 sequence (O75908 whole entry): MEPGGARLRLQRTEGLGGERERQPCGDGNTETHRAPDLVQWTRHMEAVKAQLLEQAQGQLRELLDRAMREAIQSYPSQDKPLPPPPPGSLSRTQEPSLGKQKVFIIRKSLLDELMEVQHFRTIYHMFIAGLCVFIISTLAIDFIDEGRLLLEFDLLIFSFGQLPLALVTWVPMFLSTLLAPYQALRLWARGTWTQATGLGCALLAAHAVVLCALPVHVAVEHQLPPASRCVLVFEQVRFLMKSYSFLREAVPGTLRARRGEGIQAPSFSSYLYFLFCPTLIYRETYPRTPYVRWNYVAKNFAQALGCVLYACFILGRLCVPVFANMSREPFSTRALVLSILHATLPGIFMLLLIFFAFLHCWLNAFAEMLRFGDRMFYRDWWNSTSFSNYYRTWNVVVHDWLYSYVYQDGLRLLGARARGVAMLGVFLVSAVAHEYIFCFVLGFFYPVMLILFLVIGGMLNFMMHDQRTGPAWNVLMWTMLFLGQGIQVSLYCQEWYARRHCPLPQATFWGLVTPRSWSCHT

[2] = target: T2, Sterol O-acyltransferase 1 (Homo sapiens, UniProt P35610); assay: Inhibition of ACAT1 (unknown origin)
T2 sequence (P35610 whole entry): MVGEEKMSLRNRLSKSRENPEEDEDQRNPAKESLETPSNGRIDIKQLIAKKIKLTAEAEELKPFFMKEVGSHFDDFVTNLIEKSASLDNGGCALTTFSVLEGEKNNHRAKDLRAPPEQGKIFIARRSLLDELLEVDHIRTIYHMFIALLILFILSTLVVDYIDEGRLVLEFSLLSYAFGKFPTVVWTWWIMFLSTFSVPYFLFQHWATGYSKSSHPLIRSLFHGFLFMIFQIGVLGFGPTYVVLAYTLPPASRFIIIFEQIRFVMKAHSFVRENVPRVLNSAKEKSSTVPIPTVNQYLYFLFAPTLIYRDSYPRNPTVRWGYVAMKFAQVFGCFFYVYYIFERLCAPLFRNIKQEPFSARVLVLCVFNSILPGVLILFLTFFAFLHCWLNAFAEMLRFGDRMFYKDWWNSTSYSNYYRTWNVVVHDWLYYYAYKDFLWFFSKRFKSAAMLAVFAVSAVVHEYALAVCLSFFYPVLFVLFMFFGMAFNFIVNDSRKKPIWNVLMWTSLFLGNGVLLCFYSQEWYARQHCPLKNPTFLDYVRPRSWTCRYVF

SMILES	Ratio IC50 (Homo sapiens)	IC50 [1] [nM]	IC50 [2] [nM]
COc1cccc(C(=O)O[C@H]2C[C@H]3[C@]4(C)CO[C@@H](c5ccccc5)O[C@H]4CC[C@]3(C)[C@H]3[C@@H](O)c4c(cc(-c5cccnc5)oc4=O)O[C@]23C)c1	61.4	70	4300
C[C@@]12CO[C@@H](c3ccccc3)O[C@H]1CC[C@@]1(C)[C@H]2C[C@H](OC(=O)c2cccc(Cl)c2)[C@@]2(C)Oc3cc(-c4cccnc4)oc(=O)c3[C@H](O)[C@H]12	142	19	2700
C[C@@]12CO[C@@H](c3ccccc3)O[C@H]1CC[C@@]1(C)[C@H]2C[C@H](OC(=O)c2ccccc2Cl)[C@@]2(C)Oc3cc(-c4cccnc4)oc(=O)c3[C@H](O)[C@H]12	16.2	110	1780
C[C@@]12CO[C@@H](c3cccc4ccccc34)O[C@H]1CC[C@@]1(C)[C@H]2C[C@H](OC(=O)c2ccc(C#N)cc2)[C@@]2(C)Oc3cc(-c4cccnc4)oc(=O)c3[C@H](O)[C@H]12	> 2980	23.2	> 69100
CC(=O)OC[C@@]1(C)[C@@H]2C[C@H](OC(=O)c3ccc(C#N)cc3)[C@@]3(C)Oc4cc(-c5cccnc5)oc(=O)c4[C@H](O)[C@@H]3[C@@]2(C)CC[C@@H]1OC(C)=O	4620		
CCCCC(=O)O[C@H]1C[C@H]2[C@]3(C)CO[C@@H](c4ccccc4)O[C@H]3CC[C@]2(C)[C@H]2[C@@H](O)c3c(cc(-c4cccnc4)oc3=O)O[C@]12C	200	20	4000
C[C@@]12CO[C@@H](c3ccccc3)O[C@H]1CC[C@@]1(C)[C@H]2C[C@H](OC(=O)c2cccc(C#N)c2)[C@@]2(C)Oc3cc(-c4cccnc4)oc(=O)c3[C@H](O)[C@H]12	73.3	30	2200
COc1ccccc1[C@@H]1OC[C@@]2(C)[C@@H]3C[C@H](OC(=O)c4ccc(C#N)cc4)[C@@]4(C)Oc5cc(-c6cccnc6)oc(=O)c5[C@H](O)[C@@H]4[C@@]3(C)CC[C@@H]2O1	> 1930	36.8	> 71000
COc1ccccc1C(=O)O[C@H]1C[C@H]2[C@]3(C)CO[C@@H](c4ccccc4)O[C@H]3CC[C@]2(C)[C@H]2[C@@H](O)c3c(cc(-c4cccnc4)oc3=O)O[C@]12C	10.5	320	3400
Cc1ccccc1[C@@H]1OC[C@@]2(C)[C@@H]3C[C@H](OC(=O)c4ccc(F)cc4)[C@@]4(C)Oc5cc(-c6cccnc6)oc(=O)c5[C@H](O)[C@@H]4[C@@]3(C)CC[C@@H]2O1		23	
Cc1cccc([C@@H]2OC[C@@]3(C)[C@@H]4C[C@H](OC(=O)c5ccc(F)cc5)[C@@]5(C)Oc6cc(-c7cccnc7)oc(=O)c6[C@H](O)[C@@H]5[C@@]4(C)CC[C@@H]3O2)c1	200	47.6	9510
C[C@@]12CO[C@@H](c3ccccc3)O[C@H]1CC[C@@]1(C)[C@H]2C[C@H](OC(=O)c2cccc(Br)c2)[C@@]2(C)Oc3cc(-c4cccnc4)oc(=O)c3[C@H](O)[C@H]12	143	30	4300
C[C@@]12CO[C@@H](c3ccccc3)O[C@H]1CC[C@@]1(C)[C@H]2C[C@H](OC(=O)c2ccccc2F)[C@@]2(C)Oc3cc(-c4cccnc4)oc(=O)c3[C@H](O)[C@H]12	54	50	2700
C[C@@]12CO[C@@H](c3ccccc3)O[C@H]1CC[C@@]1(C)[C@H]2C[C@H](OC(=O)c2ccc(C=O)cc2)[C@@]2(C)Oc3cc(-c4cccnc4)oc(=O)c3[C@H](O)[C@H]12	183	30	5500
C[C@@]12CO[C@@H](c3ccccc3)O[C@H]1CC[C@@]1(C)[C@H]2C[C@H](OC(=O)c2ccc([N+](=O)[O-])cc2)[C@@]2(C)Oc3cc(-c4cccnc4)oc(=O)c3[C@H](O)[C@H]12	232	60	13900
C[C@@]12CO[C@@H](c3ccccc3)O[C@H]1CC[C@@]1(C)[C@H]2C[C@H](OC(=O)c2ccccc2C#N)[C@@]2(C)Oc3cc(-c4cccnc4)oc(=O)c3[C@H](O)[C@H]12		320	

Next, values leading:

Ratio IC50 (Homo sapiens)	IC50 [1] [nM]	IC50 [2] [nM]	SMILES
367	15.1	5540	Cc1ccc([C@@H]2OC[C@@]3(C)[C@@H]4C[C@H](OC(=O)c5ccc(F)cc5)[C@@]5(C)Oc6cc(-c7cccnc7)oc(=O)c6[C@H](O)[C@@H]5[C@@]4(C)CC[C@@H]3O2)cc1
493	14	6900	COc1ccc(C(=O)O[C@H]2C[C@H]3[C@]4(C)CO[C@@H](c5ccccc5)O[C@H]4CC[C@]3(C)[C@H]3[C@@H](O)c4c(cc(-c5cccnc5)oc4=O)O[C@]23C)cc1
690	10	6900	C[C@@]12CO[C@@H](c3ccccc3)O[C@H]1CC[C@@]1(C)[C@H]2C[C@H](OC(=O)c2ccc(Br)cc2)[C@@]2(C)Oc3cc(-c4cccnc4)oc(=O)c3[C@H](O)[C@H]12
836	9.7	8110	Cc1ccc([C@@H]2OC[C@@]3(C)[C@@H]4C[C@H](OC(=O)c5ccc(C#N)cc5)[C@@]5(C)Oc6cc(-c7cccnc7)oc(=O)c6[C@H](O)[C@@H]5[C@@]4(C)CC[C@@H]3O2)cc1
467	6	2800	C[C@@]12CO[C@@H](c3ccccc3)O[C@H]1CC[C@@]1(C)[C@H]2C[C@H](OC(=O)c2ccc(C#N)cc2)[C@@]2(C)Oc3cc(-c4cccnc4)oc(=O)c3[C@H](O)[C@H]12
> 9920	7.2	> 71200	Cc1cccc(C)c1[C@@H]1OC[C@@]2(C)[C@@H]3C[C@H](OC(=O)c4ccc(C#N)cc4)[C@@]4(C)Oc5cc(-c6cccnc6)oc(=O)c5[C@H](O)[C@@H]4[C@@]3(C)CC[C@@H]2O1
320	10	3200	CCCCC(=O)O[C@H]1C[C@H]2[C@]3(C)CO[C@@H](c4ccccc4C)O[C@H]3CC[C@]2(C)[C@H]2[C@@H](O)c3c(cc(-c4cccnc4)oc3=O)O[C@]12C
478	7.8	3730	Cc1cccc([C@@H]2OC[C@@]3(C)[C@@H]4C[C@H](OC(=O)c5ccc(C#N)cc5)[C@@]5(C)Oc6cc(-c7cccnc7)oc(=O)c6[C@H](O)[C@@H]5[C@@]4(C)CC[C@@H]3O2)c1
231	13	3000	C[C@@]12CO[C@@H](c3ccccc3)O[C@H]1CC[C@@]1(C)[C@H]2C[C@H](OC(=O)c2cccc(F)c2)[C@@]2(C)Oc3cc(-c4cccnc4)oc(=O)c3[C@H](O)[C@H]12
	6.8		C[C@@]12CO[C@@H](c3ccccc3F)O[C@H]1CC[C@@]1(C)[C@H]2C[C@H](OC(=O)c2ccc(C#N)cc2)[C@@]2(C)Oc3cc(-c4cccnc4)oc(=O)c3[C@H](O)[C@H]12
> 6160	11.8	> 72800	Cc1ccccc1[C@@H]1OC[C@@]2(C)[C@@H]3C[C@H](OC(=O)c4ccc(C#N)cc4)[C@@]4(C)Oc5cc(-c6cccnc6)oc(=O)c5[C@H](O)[C@@H]4[C@@]3(C)CC[C@@H]2O1
644	9	5800	C[C@@]12CO[C@@H](c3ccccc3)O[C@H]1CC[C@@]1(C)[C@H]2C[C@H](OC(=O)c2ccc(Cl)cc2)[C@@]2(C)Oc3cc(-c4cccnc4)oc(=O)c3[C@H](O)[C@H]12
886	7	6200	C[C@@]12CO[C@@H](c3ccccc3)O[C@H]1CC[C@@]1(C)[C@H]2C[C@H](OC(=O)c2ccc(F)cc2)[C@@]2(C)Oc3cc(-c4cccnc4)oc(=O)c3[C@H](O)[C@H]12
1520	6.6	10000	Cc1ccc([C@@H]2OC[C@@]3(C)[C@@H]4C[C@H](OC(=O)c5ccc(C#N)cc5)[C@@]5(C)Oc6cc(-c7cccnc7)oc(=O)c6[C@H](O)[C@@H]5[C@@]4(C)CC[C@@H]3O2)c(C)c1
